From article PMC8348901, “Novel N-Substituted 3-Aryl-4-(diethoxyphosphoryl)azetidin-2-ones as Antibiotic Enhancers and Antiviral Agents in Search for a Successful Treatment of Complex Infections” (International Journal of Molecular Sciences, 2021)
Where two headings read alike, the source gives them in different places.

Columns and labels:
MRSA HEMSA 5 = assay: Oxacillin MIC reduction (adjuvant) microdilution assay; type: cell-based, Staphylococcus aureus; settings: for Activity Gain [A]: MIC(OXA)/MIC(OXA+Cpd), compound 0.5 mM, adjuvant activity if A ≥ 4
Description: (§1) Since the lack of direct antibacterial activity of the obtained azetidinones was observed, all isomers trans and cis were investigated on their “adjuvant” properties, i.e., an ability to enhance the effectiveness of antibiotics against S. aureus strains. Thus, the compounds were tested in combination with the known β-lactam antibiotic, oxacillin, in the microdilution assays. The ability of the tested azetidinones to reduce minimum inhibitory concentration (MIC) of oxacillin against both, the referenced and the resistant S. aureus strains, was assessed.
(§2) The in-vitro antibacterial property and the capacity of tested compounds to increase the efficacy of antibiotics were evaluated in two Staphylococcus aureus strains, i.e., the reference clonal complex 5 (CC5) methicillin-susceptible (MSSA) strain ATCC 25923, and the methicillin-resistant (MRSA) extensively drug-resistant (XDR) clinical isolate HEMSA-5 [46].
(§3) In order to assess the increase of antibiotic efficacy, the assays were conducted by determining if/to what extent the investigated compounds reduce MICs of oxacillin by means of a serial dilution broth microplate method, in accordance with the CLSI requirements. The concentrations of compounds used in the MICs reduction assay were no greater than 1/4 of their respective MICs to ensure that cell viability was not affected by the intrinsic antibacterial activity of the molecules. Serial two-fold dilutions of oxacillin (Sigma-Aldrich; St. Louis, MI, USA, cat. no. 28221), were prepared in […] of the Mueller–Hinton broth (Merck; Darmstadt, Germany, cat. no. 1102930500). Suitable concentrations of the compounds (total volume […]) were then added. Bacterial suspensions were diluted to OD ¼ 0.5. The resulting suspensions were then diluted 1:100 and added in the volume of […] into the oxacillin serial dilutions with the compounds. The results were read after 20-h incubation at 37 °C.
(§4) The ability of compounds to improve antibiotic efficacy was expressed as the activity gain [A] parameter calculated according to the formula given in Figure 10.
(§5) Figure 10 Activity gain. MICAnt corresponds to the MIC of oxacillin in the absence of a compound tested and MICAnt + Comp refers to the MIC of oxacillin paired with a compound tested.

S. aureus ATCC 25923 = assay: as above; type: cell-based, Staphylococcus aureus; settings: for Activity Gain [A]: MIC(OXA)/MIC(OXA+Cpd), compound 0.5 mM, adjuvant activity if A ≥ 4
Description: as §1, §2, §3, §4, §5

[1] = tested on: Capan-1 (pancreatic adenocarcinoma); assay: Cytostatic activity (cell proliferation); type: cell-based; settings: Homo sapiens, CAPAN-1
Description: (§6) The 50% cytostatic inhibitory concentration (IC50) causing a 50% decrease in cell proliferation was determined for all obtained compounds toward 9 cancerous cell lines, i.e.,: Capan-1 (pancreatic adenocarcinoma), Hap1 (chronic myeloid leukemia), HCT-116 (colorectal carcinoma), NCI-H460 (lung carcinoma), DND-41 (acute lymphoblastic leukemia), HL-60 (acute myeloid leukemia), K-562 (chronic myeloid leukemia), MM.1S (multiple myeloma), Z-138 non-Hodgkin lymphoma), as well as normal retina (non-cancerous) cells (hTERT RPE-1).
(§7) All assays were performed in 96-well microtiter plates. To each well was added (5–7.5) × 10^4 tumor cells and a given amount of the tested compound. The cells were allowed to proliferate at 37 °C in a humidified, CO2-controlled atmosphere. At the end of the incubation period, the cells were counted in a Coulter counter.

[2] = tested on: Hap1 (chronic myeloid leukemia); assay: Cytostatic activity (cell proliferation); type: cell-based
Description: as §6, with “RPE-1). Docetaxel, etoposide and stauroporine were used as the reference compounds.” for “RPE-1).”
as §7, with “counter. The IC50 (50% inhibitory concentration) was defined as the concentration of the compound that inhibited cell proliferation by 50%.” for “counter.”

[3] = tested on: NCI-H460 (lung carcinoma); assay: Cytostatic activity (cell proliferation); type: cell-based
Description: as §6, with “RPE-1). Docetaxel, etoposide and stauroporine were used as the reference compounds.” for “RPE-1).”
as §7, with “counter. The IC50 (50% inhibitory concentration) was defined as the concentration of the compound that inhibited cell proliferation by 50%.” for “counter.”

[4] = tested on: DND-41 (acute lymphoblastic leukemia); assay: Cytostatic activity (cell proliferation); type: cell-based
Description: as §6, with “RPE-1). Docetaxel, etoposide and stauroporine were used as the reference compounds.” for “RPE-1).”
as §7, with “counter. The IC50 (50% inhibitory concentration) was defined as the concentration of the compound that inhibited cell proliferation by 50%.” for “counter.”

[5] = tested on: hTERT RPE-1 normal retina (non-cancerous) cells; assay: Cytostatic activity (cell proliferation); type: cell-based
Description: as §6, with “RPE-1). Docetaxel, etoposide and stauroporine were used as the reference compounds.” for “RPE-1).”
as §7, with “counter. The IC50 (50% inhibitory concentration) was defined as the concentration of the compound that inhibited cell proliferation by 50%.” for “counter.”

[6] = tested on: HCT-116 (colorectal carcinoma); assay: Cytostatic activity (cell proliferation); type: cell-based
Description: as §6, with “RPE-1). Docetaxel, etoposide and stauroporine were used as the reference compounds.” for “RPE-1).”
as §7, with “counter. The IC50 (50% inhibitory concentration) was defined as the concentration of the compound that inhibited cell proliferation by 50%.” for “counter.”

In the case of `CCOP(=O)(OCC)[C@@H]1[C@H](c2ccc(F)cc2)C(=O)N1Cc1ccccc1` (relative stereo) [cis-11d, cis-N-benzyl-3-(4-fluorophenyl)-4-(diethoxyphosphoryl)azetidin-2-one], the “Activity Gain [A]” value (MRSA HEMSA 5) is reported as 1, the “Activity Gain [A]” value (S. aureus ATCC 25923) is reported as 1 and the IC50 [1] is reported as 35.9 µM. For the same compound, the IC50 ([2]; Homo sapiens, HAP1) was 61.9 µM, the IC50 ([3]; Homo sapiens, NCI-H460) was 45.9 µM and the IC50 ([4]; DND41) was over 100 µM. It also gave an IC50 ([5]; hTERT-RPE1) of over 100 µM and an IC50 ([6]; Homo sapiens, HCT-116) of 54.1 µM.

In the case of `CCOP(=O)(OCC)[C@H]1[C@H](c2ccccc2F)C(=O)N1C` (relative stereo) [trans-10b, trans-N-methyl-3-(2-fluorophenyl)-4-(diethoxyphosphoryl)azetidin-2-one], the “Activity Gain [A]” value (MRSA HEMSA 5) is reported as 1, the “Activity Gain [A]” value (S. aureus ATCC 25923) is reported as 0.5 and the IC50 [1] is reported as 53.1 µM. It also gave an IC50 ([2]; Homo sapiens, HAP1) of 38.7 µM, an IC50 ([3]; Homo sapiens, NCI-H460) of 34.8 µM and an IC50 ([4]; DND41) of over 100 µM. The IC50 ([5]; hTERT-RPE1) was over 100 µM and the IC50 ([6]; Homo sapiens, HCT-116) was 44.1 µM.

With `CCOP(=O)(OCC)[C@@H]1[C@H](c2ccccc2)C(=O)N1Cc1ccccc1` (relative stereo) [cis-11a, cis-N-benzyl-3-phenyl-4-(diethoxyphosphoryl)azetidin-2-one] the “Activity Gain [A]” value (MRSA HEMSA 5) was 1–2, the “Activity Gain [A]” value (S. aureus ATCC 25923) was 0.5 and the IC50 [1] was 95.2 µM. It also gave an IC50 ([2]; Homo sapiens, HAP1) of over 100 µM, an IC50 ([3]; Homo sapiens, NCI-H460) of 78.8 µM and an IC50 ([4]; DND41) of over 100 µM. The IC50 ([5]; hTERT-RPE1) was over 100 µM and the IC50 ([6]; Homo sapiens, HCT-116) was 87.9 µM.

With `CCOP(=O)(OCC)[C@@H]1[C@H](c2ccc(F)cc2F)C(=O)N1C` (relative stereo) [cis-10e, cis-N-methyl-3-(2,4-difluorophenyl)-4-(diethoxyphosphoryl)azetidin-2-one] the “Activity Gain [A]” value (MRSA HEMSA 5) was 1, the “Activity Gain [A]” value (S. aureus ATCC 25923) was 1 and the IC50 [1] was 56.8 µM. For the same compound, the IC50 ([2]; Homo sapiens, HAP1) was over 100 µM, the IC50 ([3]; Homo sapiens, NCI-H460) was 92.6 µM and the IC50 ([4]; DND41) was over 100 µM. For the same compound, the IC50 ([5]; hTERT-RPE1) was over 100 µM and the IC50 ([6]; Homo sapiens, HCT-116) was over 100 µM.

In the case of `CCOP(=O)(OCC)[C@H]1[C@H](c2ccc(F)cc2)C(=O)N1C` (relative stereo) [trans-10d, trans-N-methyl-3-(4-fluorophenyl)-4-(diethoxyphosphoryl)azetidin-2-one], the “Activity Gain [A]” value (MRSA HEMSA 5) is reported as 1, the “Activity Gain [A]” value (S. aureus ATCC 25923) is reported as 0.5 and the IC50 [1] is reported as 45.7 µM. It also gave an IC50 ([2]; Homo sapiens, HAP1) of 58.1 µM, an IC50 ([3]; Homo sapiens, NCI-H460) of 41.3 µM and an IC50 ([4]; DND41) of over 100 µM. The IC50 ([5]; hTERT-RPE1) was over 100 µM and the IC50 ([6]; Homo sapiens, HCT-116) was over 100 µM.

With `CCOP(=O)(OCC)[C@H]1[C@H](c2cccc(F)c2)C(=O)N1C` (relative stereo) [trans-10c, trans-N-methyl-3-(3-fluorophenyl)-4-(diethoxyphosphoryl)azetidin-2-one] the “Activity Gain [A]” value (MRSA HEMSA 5) was 1, the “Activity Gain [A]” value (S. aureus ATCC 25923) was 0.5 and the IC50 [1] was 19.6 µM. The IC50 ([2]; Homo sapiens, HAP1) was 69.1 µM, the IC50 ([3]; Homo sapiens, NCI-H460) was 62.8 µM and the IC50 ([4]; DND41) was over 100 µM. For the same compound, the IC50 ([5]; hTERT-RPE1) was over 100 µM and the IC50 ([6]; Homo sapiens, HCT-116) was over 100 µM.

With `CN[C@@H]1C[C@H]2O[C@@](C)([C@@H]1OC)n1c3ccccc3c3c4c(c5c6ccccc6n2c5c31)C(=O)NC4` [Stauroporine, reference compound] the IC50 [2] was 3.55 µM, the IC50 [3] was 11.5 µM and the IC50 [4] was 21.5 µM. It also gave an IC50 [5] of 0.25 µM and an IC50 [6] of 0.09 µM.

Compound `COc1cc([C@@H]2c3cc4c(cc3[C@@H](O[C@@H]3O[C@@H]5CO[C@@H](C)O[C@H]5[C@H](O)[C@H]3O)[C@H]3COC(=O)[C@H]23)OCO4)cc(OC)c1O` [Etoposide, reference compound] has an IC50 [1] of 0.15 µM, an IC50 ([2]; Homo sapiens, HAP1) of 0.04 µM and an IC50 ([3]; Homo sapiens, NCI-H460) of 1.35 µM. It also gave an IC50 ([4]; DND41) of 0.06 µM and an IC50 ([5]; hTERT-RPE1) of 0.23 µM.

Compound `CC(=O)O[C@@]12CO[C@@H]1C[C@H](O)[C@@]1(C)C(=O)[C@H](O)C3=C(C)[C@@H](OC(=O)[C@H](O)[C@@H](NC(=O)OC(C)(C)C)c4ccccc4)C[C@@](O)([C@@H](OC(=O)c4ccccc4)[C@H]21)C3(C)C` [Docetaxel, reference compound] has an IC50 [1] of 0.95 µM, an IC50 ([2]; Homo sapiens, HAP1) of 1.19 µM and an IC50 ([3]; Homo sapiens, NCI-H460) of 0.89 µM. For the same compound, the IC50 ([4]; DND41) was 1.63 µM, the IC50 ([5]; hTERT-RPE1) was 25 µM and the IC50 ([6]; Homo sapiens, HCT-116) was 0.25 µM.

Compound `Cc1onc(-c2ccccc2)c1C(=O)N[C@@H]1C(=O)N2[C@@H]1SC(C)(C)[C@@H]2C(=O)O` [oxacillin, reference compound] has an MIC (MRSA HEMSA 5; Staphylococcus aureus, oxacillin alone, read-out: OXA MIC) of 512 µg/mL and an MIC (S. aureus ATCC 25923; Staphylococcus aureus, ATCC25923, oxacillin alone, read-out: OXA MIC) of 0.5 µg/mL.
